Active and inactive are the calls of the source. The calls are words filed in the database; no cut-off is given here.
How the values were obtained:
[1] = target: T1, Polyunsaturated fatty acid 5-lipoxygenase (Homo sapiens, UniProt P09917); test: Inhibition of [14C]arachidonic acid conversion to 5-HETE by broken cell 5-LO isolated from guinea pig PMN; not active at the highest concentration (3 ug/mL) tested; No activity; type: functional, Cavia porcellus; conditions: target entry is the homologue from another species
T1 sequence (P09917 whole entry): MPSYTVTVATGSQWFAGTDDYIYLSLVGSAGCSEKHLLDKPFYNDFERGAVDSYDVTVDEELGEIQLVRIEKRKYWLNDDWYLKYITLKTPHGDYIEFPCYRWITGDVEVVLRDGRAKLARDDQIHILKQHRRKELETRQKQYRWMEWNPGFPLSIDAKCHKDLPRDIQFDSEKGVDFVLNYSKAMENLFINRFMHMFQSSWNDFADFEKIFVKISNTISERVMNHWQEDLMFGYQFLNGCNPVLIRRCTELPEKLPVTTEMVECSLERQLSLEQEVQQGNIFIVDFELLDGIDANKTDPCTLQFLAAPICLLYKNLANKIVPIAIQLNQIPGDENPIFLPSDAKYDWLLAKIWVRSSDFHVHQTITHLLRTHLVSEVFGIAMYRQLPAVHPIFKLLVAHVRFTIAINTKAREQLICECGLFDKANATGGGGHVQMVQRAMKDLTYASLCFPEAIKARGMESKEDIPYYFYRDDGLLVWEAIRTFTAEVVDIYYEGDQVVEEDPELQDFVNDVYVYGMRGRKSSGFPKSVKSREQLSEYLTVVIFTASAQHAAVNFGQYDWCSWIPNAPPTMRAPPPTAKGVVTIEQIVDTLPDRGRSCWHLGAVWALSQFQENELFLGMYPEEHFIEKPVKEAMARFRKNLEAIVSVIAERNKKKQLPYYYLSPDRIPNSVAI

Oryctolagus cuniculus = species on record: Oryctolagus cuniculus; test: The ability to inhibit iron-dependent lipid peroxidation of rabbit brain homogenate; not active at the highest concentration (30 ug/mL) tested; No activity; type: functional

IC50 [1]: Not Active
MIC (Oryctolagus cuniculus): inactive
Compound: CC1=NN(CCOc2ccc3ccccc3c2)C(=O)C1(C)C
